Source: patent US12071435B2, “TLR8 agonist” (CHIA TAI TIANQING PHARMACEUTICAL GROUP CO., LTD., priority 2018, dated 2024)

What was measured:
Type in all cases: cell-based
[1] = molecular target: Human TLR8 (Homo sapiens (Human), UniProt Q9NR97); assay: HEK-Blue hTLR8 SEAP reporter gene assay (agonistic activity); conditions: HEK-Blue hTLR8 cells, 24 h incubation, SEAP by QUANTI-Blue OD650
Text: (§1) The HEK-Blue™ hTLR7 (catalog No.: hkb-ht1r7) and HEK-Blue™ hTLR8 (catalog No.: hkb-ht1r8) cell lines used in this experiment were purchased from InvivoGen. The two cell lines were constructed by a human embryonic kidney 293 cell line stably co-transfecting hTLR7 or hTLR8 and inducing expression of Secreted Alkaline Phosphatase (SEAP) reporter gene, wherein SEAP reporter gene was regulated by an IFN-β promoter. The promoter was fused with NF-κB and AP-1 binding sites. hTLR7 or hTLR8 agonist can activate NF-κB and AP-1 and induce the expression and secretion of SEAP. The agonistic activity of compound for hTLR7 and hTLR8 receptors was identified by measuring the expression level of SEAP using QUANTI-Blue™ reagent.
(§2) • 1. Compound was diluted in 3-fold gradients (10 concentration points in total) and added to the cell plate in duplicate. 1 μL of DMSO was added to each negative control well. • 2. The cells cultured in a T150 flask were taken out from a CO2 incubator, and the cell culture supernatant was discarded. The resulting cells were washed once with Dulbecco's phosphate buffered saline (DPBS). The flask was added with about 10 mL of the culture medium, and tapped to detach the cells. The resulting cell mass was gently pipetted evenly. The cells were counted and the cell suspension was adjusted to 500,000 cells/mL with the culture medium. Then 100 μL of diluted cells were added to each well (50,000 cells/well) of a 96-well plate containing the compound. • 3. The compound and cells were incubated in an incubator at 37° C., 5% CO2 for 24 h. • 4. Activity assay on the compound: 20 μL of the induced cell supernatant from each well was added to a cell culture plate containing 180 μL of QUANTI-Blue™ reagent, and after incubation at 37° C. for 1 h, the optical density absorbance at 650 nm (OD650) was assayed for each well using a multi-functional microplate reader. • 5. Activity assay on the cells: luciferase signal (RLU) was detected using a multi-functional microplate reader as per the process described in the instructions of ATPlite 1Step. • 6. Data analysis: compound activity: OD650 values were analyzed using GraphPad Prism software and the dose-response curves of the compounds were fitted to calculate EC50 values (half maximal effect concentration) for the compounds.

[2] = system: human peripheral blood mononuclear cells (hPBMCs); assay: Cytokine induction (IL-12p40, IFN-γ, TNF-α) in peripheral blood mononuclear cells, flow cytometric bead array; conditions: PBMC, hPBMC, 24 h incubation, supernatant, CBA
Text: (§3) TLR8 is a receptor for the innate immune system to sense exogenous pathogens, and can recognize exogenous viral single-stranded RNA and cause the release of a series of cytokines such as TNF-α, IL-12, IFN-γ to elicit an antiviral immune response; TLR7 is another receptor for the innate immune system to sense exogenous pathogens and, when activated, produces primarily such antiviral cytokines as IFN-α. In this experiment, a potential compound of TLR8 agonist was used to stimulate human peripheral blood mononuclear cells (hPBMCs), and the levels of TNF-α, IL-12p40, IFN-γ and IFN-α above were measured to reflect the activation of the compound on TLR8 receptor and its selectivity for TLR8/TLR7.
• 1. Fresh blood of healthy volunteers was collected and anticoagulated with an EDTA-K2 anticoagulation tube (catalog No.: BD-8516542); • 2. hPBMC cells in the middle cloud-like layer were separated after Ficoll density gradient centrifugation, and washed twice with RPMI1640 (source: Gibco, catalog No.: 224400-089) containing 10% serum, and the culture medium was resuspended to 10 mL. After the cells were counted with Vi-cell cell counter, the concentration of cell suspension was adjusted to 2×10^6/mL; • 3. The compound was dissolved in DMSO to 100 mM, and diluted to 50 mM and 2 mM with DMSO, which were served as initial concentrations. Then the solutions were each diluted sequentially in a 3-fold gradient (sample at a previous concentration (5 μL)+DMSO (10 μL)) to obtain 8 gradients. The resulting solutions were respectively subjected to 500-fold dilution with the culture medium to prepare the working solutions of the compound; • 4. […] IL-12p40, TNF-α and IFN-γ in the supernatant were detected by flow cytometric bead array (CBA); IFN-α in the cell supernatant was detected by enzyme-linked immuno sorbent assay (ELISA). • 6. Data analysis: compound activity: EC50 values (half maximal effect concentration) were analyzed using a GraphPad Prism software and the dose-response curves of the compound were fitted to calculate EC50 values for the compound.

[3] = molecular target: Human TLR7 (Homo sapiens (Human), UniProt Q9NYK1); assay: HEK-Blue hTLR7 SEAP reporter gene assay (agonistic activity); conditions: HEK-Blue hTLR7 cells, 24 h incubation, SEAP by QUANTI-Blue OD650
Text: as §1, §2

[4] = system: human peripheral blood mononuclear cells (hPBMCs); assay: IFN-α induction in peripheral blood mononuclear cells, ELISA; conditions: PBMC, hPBMC, 24 h incubation, supernatant, up to 50 μM
Text: as §3
• 1. […] After the cells were counted with Vi-cell cell counter, the concentration of cell suspension was adjusted to 2×10^6/mL; • 3. […] IL-12p40, TNF-α and IFN-γ in the supernatant were detected by flow cytometric bead array (CBA); IFN-α in the cell supernatant was detected by enzyme-linked immuno sorbent assay (ELISA). • 6. Data analysis: compound activity: EC50 values (half maximal effect concentration) were analyzed using a GraphPad Prism software and the dose-response curves of the compound were fitted to calculate EC50 values for the compound.

Chain of Human TLR7 (Q9NYK1 27-1049): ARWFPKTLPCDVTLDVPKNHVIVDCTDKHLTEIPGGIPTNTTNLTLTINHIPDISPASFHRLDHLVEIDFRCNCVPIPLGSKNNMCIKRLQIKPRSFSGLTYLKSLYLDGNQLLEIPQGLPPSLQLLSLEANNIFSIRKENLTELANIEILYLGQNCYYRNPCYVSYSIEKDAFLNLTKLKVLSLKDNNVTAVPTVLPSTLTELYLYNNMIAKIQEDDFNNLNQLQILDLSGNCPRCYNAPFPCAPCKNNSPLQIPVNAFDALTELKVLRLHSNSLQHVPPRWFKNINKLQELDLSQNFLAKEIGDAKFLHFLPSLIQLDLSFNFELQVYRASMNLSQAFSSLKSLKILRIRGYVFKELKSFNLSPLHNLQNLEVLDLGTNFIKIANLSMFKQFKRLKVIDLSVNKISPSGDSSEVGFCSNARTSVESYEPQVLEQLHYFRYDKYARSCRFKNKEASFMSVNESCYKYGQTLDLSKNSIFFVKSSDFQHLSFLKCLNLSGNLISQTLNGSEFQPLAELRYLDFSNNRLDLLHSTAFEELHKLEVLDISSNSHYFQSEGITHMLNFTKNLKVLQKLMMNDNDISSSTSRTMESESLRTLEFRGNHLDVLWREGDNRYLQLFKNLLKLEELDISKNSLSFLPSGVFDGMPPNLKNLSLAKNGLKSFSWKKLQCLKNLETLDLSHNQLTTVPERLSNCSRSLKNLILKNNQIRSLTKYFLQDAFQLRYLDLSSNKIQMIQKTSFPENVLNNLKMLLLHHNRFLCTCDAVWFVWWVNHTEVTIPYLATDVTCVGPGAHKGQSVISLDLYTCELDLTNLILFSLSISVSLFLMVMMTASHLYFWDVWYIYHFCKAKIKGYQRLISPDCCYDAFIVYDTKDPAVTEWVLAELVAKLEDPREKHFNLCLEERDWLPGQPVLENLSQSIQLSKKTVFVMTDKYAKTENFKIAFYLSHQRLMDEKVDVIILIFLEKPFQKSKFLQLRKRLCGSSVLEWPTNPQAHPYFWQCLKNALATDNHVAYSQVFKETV
Chain of Human TLR8 (Q9NR97 27-1041): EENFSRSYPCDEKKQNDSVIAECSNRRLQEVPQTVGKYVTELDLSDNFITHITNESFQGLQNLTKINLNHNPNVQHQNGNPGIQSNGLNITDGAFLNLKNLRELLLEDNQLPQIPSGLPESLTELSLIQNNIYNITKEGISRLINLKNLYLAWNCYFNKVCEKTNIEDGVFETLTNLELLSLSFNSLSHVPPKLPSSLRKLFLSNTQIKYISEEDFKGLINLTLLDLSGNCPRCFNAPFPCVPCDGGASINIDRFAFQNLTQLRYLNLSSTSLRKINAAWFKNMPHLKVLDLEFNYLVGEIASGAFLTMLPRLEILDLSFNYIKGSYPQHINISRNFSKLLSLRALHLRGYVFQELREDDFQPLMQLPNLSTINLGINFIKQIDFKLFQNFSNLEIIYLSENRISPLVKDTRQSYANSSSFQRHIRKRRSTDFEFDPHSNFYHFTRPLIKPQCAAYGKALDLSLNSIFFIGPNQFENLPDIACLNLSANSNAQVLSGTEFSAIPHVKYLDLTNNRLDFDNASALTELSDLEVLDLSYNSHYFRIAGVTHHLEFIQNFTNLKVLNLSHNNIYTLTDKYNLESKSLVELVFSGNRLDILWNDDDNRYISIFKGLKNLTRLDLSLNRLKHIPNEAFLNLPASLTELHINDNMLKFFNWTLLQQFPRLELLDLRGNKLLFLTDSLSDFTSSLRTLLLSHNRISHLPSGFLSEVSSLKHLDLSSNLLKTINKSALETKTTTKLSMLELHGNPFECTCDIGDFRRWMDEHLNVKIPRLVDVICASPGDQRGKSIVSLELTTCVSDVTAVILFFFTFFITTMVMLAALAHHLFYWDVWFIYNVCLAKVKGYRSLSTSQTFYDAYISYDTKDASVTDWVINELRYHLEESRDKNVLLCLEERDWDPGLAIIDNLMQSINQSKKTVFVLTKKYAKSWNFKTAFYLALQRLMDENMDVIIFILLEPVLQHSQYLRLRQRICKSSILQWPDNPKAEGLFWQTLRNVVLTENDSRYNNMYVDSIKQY

Row | EC50 [1] | EC50 ([2]; read-out: IFN-γ EC50) | EC50 ([2]; read-out: IL-12p40 EC50) | EC50 ([2]; read-out: TNF-α EC50) | EC50 [3] | EC50 [4] | Structure (SMILES)
1 | 2 nM | 15 nM | 6 nM | 30 nM | > 15000 nM | > 50000 nM | CCCCC(C)(CNC(=O)[C@@H]1CCCN1)Nc1nc(N)nc2cccnc12 (single isomer, unassigned) [Compound 1]
2 | 14 nM |  |  |  | > 15000 nM |  | CCCCC(C)(CNC(=O)[C@@H]1COCCN1)Nc1nc(N)nc2cccnc12 (single isomer, unassigned) [Compound 4]
3 | 106 nM |  |  |  | > 15000 nM |  | CCCCC(C)(CNC(=O)[C@@H]1CC(F)(F)CN1)Nc1nc(N)nc2cccnc12 (single isomer, unassigned) [Compound 5]
4 | 18 nM |  |  |  | > 15000 nM |  | CCCCC(C)(CNC(=O)[C@@H]1CCCCN1)Nc1nc(N)nc2cccnc12 (single isomer, unassigned) [Compound 6]
5 | 15 nM |  |  |  | > 15000 nM |  | CCCCC(C)(CNC(=O)[C@@H]1CCN1)Nc1nc(N)nc2cccnc12 (single isomer, unassigned) [Compound 7]
6 | 6 nM |  |  |  | > 15000 nM |  | CCCCC(C)(CNC(=O)[C@@H]1CCCN1)Nc1nc(N)nc2cnccc12 (stereo partly drawn) [Compound 2]
7 | 32 nM |  |  |  | > 15000 nM |  | CCCCC(C)(CNC(=O)[C@@H]1CCCN1)Nc1nc(N)nc2ccccc12 (stereo partly drawn) [Compound 3]
